Where two headings read alike, the source gives them in different places. Marks after values point to notes of the source that are not given here.
Test system: female obese Zucker rats
Test: Serum lipid and glycemic control variables in chow-fed obese female Zucker rats, daily oral gavage for two weeks
Assay type: in vivo, rat
Conditions: for change in vivo at 100 mg/kg: Rattus norvegicus, Table 9; for Glucose / HDL-C / NEFA / Non-HDL-C / TG / Insulin: serum, mean ± SEM; for Insulin: Tables 10, 11
How it was run: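 Female obese Zucker fa rats, 10–12 wk, 400–500 g, chow-fed, dosed daily by oral gavage for 14 days in CMC/Tween 20 or ethanol/PEG-200 vehicle. After a 6-h fast, serum was sampled pre-dose, day 7 and day 14. Triglycerides, total cholesterol, NEFA and β-hydroxybutyrate were measured, plus lipoprotein cholesterol by gel-filtration profiling.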

## CC(C)(CO)CCCCC(=O)CCCCC(C)(C)CO [Compound 214c, 1,13-Dihydroxy-2,2,12,12-tetramethyltridecan-7-one]
3 mg/kg daily oral, 1 wk
  HDL-C, percent increase (+) or decrease (−) of the pretreatment control value: (−10) percent
  Glucose: 106 ± 2 mg/dL
  HDL-C: 43 ± 4^a mg/dl
  NEFA: 1.2 ± 0.05 mg/dL
  Non-HDL-C: 25 ± 3 mg/dL
  TG: 800 ± 75 mg/dL
  Insulin: 7.5 ± 0.8 ng/mL
3 mg/kg daily oral, 2 wk
  HDL-C, percent increase (+) or decrease (−) of the pretreatment control value: (−19) percent
  NEFA, percent increase (+) or decrease (−) of the pretreatment control value: (+145) percent
  Glucose: 103 ± 3 mg/dL
  HDL-C: 39 ± 4^a mg/dl
  NEFA: 1.6 ± 0.13
  Non-HDL-C: 22 ± 2 mg/dL
  TG: 781 ± 65 mg/dL
  Insulin: 7.8 ± 0.6 ng/mL
10 mg/kg daily oral, 1 wk
  HDL-C, percent increase (+) or decrease (−) of the pretreatment control value: (+113) percent
  NEFA, percent increase (+) or decrease (−) of the pretreatment control value: (−18) percent
  TG, percent increase (+) or decrease (−) of the pretreatment control value: (−23) percent
  Glucose: 110 ± 2 mg/dL
  HDL-C: 52 ± 3^a mg/dl
  NEFA: 0.98 ± 0.08
  Non-HDL-C: 21 ± 2 mg/dL
  TG: 602 ± 37^a mg/dl
  Insulin: 7.5 ± 0.4 ng/mL
10 mg/kg daily oral, 2 wk
  HDL-C, percent increase (+) or decrease (−) of the pretreatment control value: (+115) percent
  Glucose: 110 ± 3 mg/dL
  HDL-C: 53 ± 4^a mg/dl
  NEFA: 1.0 ± 0.10 mg/dL
  Non-HDL-C: 25 ± 2 mg/dL
  TG: 730 ± 52 mg/dL
  Insulin: 7.8 ± 0.5 ng/mL
30 mg/kg daily oral, 1 wk
  HDL-C, percent increase (+) or decrease (−) of the pretreatment control value: (+140) percent
  NEFA, percent increase (+) or decrease (−) of the pretreatment control value: (−21) percent
  TG, percent increase (+) or decrease (−) of the pretreatment control value: (−27) percent
  Glucose: 112 ± 13 mg/dL
  HDL-C: 60 ± 3^a mg/dl
  NEFA: 1.1 ± 0.05
  Non-HDL-C: 28 ± 2 mg/dL
  TG: 726 ± 49^a mg/dl
  Insulin: 0.091 ± 0.006 ng/mL
30 mg/kg daily oral, 2 wk
  HDL-C, percent increase (+) or decrease (−) of the pretreatment control value: (+142) percent
  Non-HDL-C, percent increase (+) or decrease (−) of the pretreatment control value: (+127) percent
  Glucose: 120 ± 3 mg/dL
  HDL-C: 61 ± 4^a mg/dl
  NEFA: 1.2 ± 0.10 mg/dL
  Non-HDL-C: 38 ± 5^a mg/dl
  TG: 985 ± 110 mg/dL
  Insulin: 0.098 ± 0.007 ng/mL
100 mg/kg daily oral, 1 wk
  HDL-C, percent increase (+) or decrease (−) of the pretreatment control value: (+173) percent
  NEFA, percent increase (+) or decrease (−) of the pretreatment control value: (−30) percent
  TG, percent increase (+) or decrease (−) of the pretreatment control value: (−54) percent
  Glucose: 120 ± 5 mg/dL
  HDL-C: 78 ± 5^a mg/dl
  NEFA: 0.98 ± 0.04
  Non-HDL-C: 23 ± 1 mg/dL
  TG: 485 ± 29^a mg/dl
  Insulin: 0.109 ± 0.01 ng/mL
100 mg/kg daily oral, 2 wk
  HDL-C, percent increase (+) or decrease (−) of the pretreatment control value: (+176) percent
  NEFA, percent increase (+) or decrease (−) of the pretreatment control value: (−33) percent
  TG, percent increase (+) or decrease (−) of the pretreatment control value: (−33) percent
  Glucose: 118 ± 3 mg/dL
  HDL-C: 79 ± 6^a mg/dl
  NEFA: 0.94 ± 0.04
  Non-HDL-C: 32 ± 2 mg/dL
  TG: 702 ± 53^a mg/dl
  Insulin: 0.11 ± 0.009 ng/mL
168 h, 100 mg/kg daily oral, 1 wk, read-out: HDL-Cholesterol, Percent Change from Pre-Treatment
  change in vivo at 100 mg/kg: 110%
168 h, 100 mg/kg daily oral, 1 wk, read-out: NonHDL-Cholesterol, Percent Change from Pre-Treatment
  change in vivo at 100 mg/kg: -23%
168 h, 100 mg/kg daily oral, 1 wk, read-out: TG, Percent Change from Pre-Treatment
  change in vivo at 100 mg/kg: -54%
336 h, 100 mg/kg daily oral, 2 wk, read-out: HDL-Cholesterol, Percent Change from Pre-Treatment
  change in vivo at 100 mg/kg: 126%
336 h, 100 mg/kg daily oral, 2 wk, read-out: NonHDL-Cholesterol, Percent Change from Pre-Treatment
  change in vivo at 100 mg/kg: -10%
336 h, 100 mg/kg daily oral, 2 wk, read-out: TG, Percent Change from Pre-Treatment
  change in vivo at 100 mg/kg: -29%
